In patent US5034548A, “Steroid derivatives useful as hypocholesterolemics” (E. I. Du Pont de Nemours and Company, priority 1990, dated 1991):
pIC50: −log10 of the molar value.

Assays:
[1] = target: T1, Lanosta-8,24-dien-3β-ol 14α-methyl demethylase (Rattus norvegicus, UniProt Q64654); assay: Lanosta-8,24-dien-3β-ol 14α-Methyl Demethylase Inhibition Assay; type: biochemical; conditions: for pIC50: rat hepatic microsomal preparations, 100 μM lanost-8-en-3β-ol substrate, pH not given, test compounds 0 to 100 μM; for effect on lanosta-8,24-dien-3β-ol 14α-methyl demethylase activity: rat microsomal preparations
T1 construct: determined in rat depatic microsomal preparations; from tissue; host or cells: rat hepatic microsomes
T1 sequence (Q64654 1-503): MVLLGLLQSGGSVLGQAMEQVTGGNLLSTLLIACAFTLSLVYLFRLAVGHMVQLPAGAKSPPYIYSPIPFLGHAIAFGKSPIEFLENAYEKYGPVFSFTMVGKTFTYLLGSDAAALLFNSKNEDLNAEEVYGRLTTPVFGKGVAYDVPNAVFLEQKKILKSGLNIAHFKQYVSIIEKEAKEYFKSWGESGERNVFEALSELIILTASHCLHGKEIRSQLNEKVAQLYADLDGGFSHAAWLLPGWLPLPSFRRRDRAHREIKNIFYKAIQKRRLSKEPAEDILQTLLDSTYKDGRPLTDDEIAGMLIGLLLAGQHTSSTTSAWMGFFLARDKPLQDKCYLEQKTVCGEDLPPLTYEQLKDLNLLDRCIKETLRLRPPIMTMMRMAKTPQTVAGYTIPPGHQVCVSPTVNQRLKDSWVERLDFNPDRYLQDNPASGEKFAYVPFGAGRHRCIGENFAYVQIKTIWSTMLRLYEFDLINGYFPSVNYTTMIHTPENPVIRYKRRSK
Protocol: Lanosta-8,24-dien-3β-ol 14α-methyl demethylase activity was determined in rat depatic microsomal preparations as described in Trzaskos et al., J. Biol. Chem., 261, 16937-16942 (1986). Specifically, test compounds were added to assay mixtures as detergent suspensions with substrate employing 5 mg Triton WR-1339, 100 μM lanost-8-en-3β-ol substrate, and test compounds ranging from 0 to 100 μM. The inhibitor/substrate/detergent suspension was incubated with 2 mg microsomal protein for 5 min at 37° followed by a 10 min incubation initiated by the addition of cofactors required for the reaction. […] Inhibition values are expressed as the amount of compound required to inhibit lanosta-8,24-dien-3β-ol 14α-methyldemethylase activity by 50% relative to that of the controls.

[2] = test system: 3-Hydroxy-3-Methylglutaryl Coenzyme A Reductase (HMGR); assay: HMGR Suppression Assay in digitonin-permeabilized CHO cells; type: cell-based, Chinese Hamster; conditions: for pIC50: 6 hr incubation at 37°, amount to suppress HMGR activity by 50% relative to controls; for effect on measured HMGR activity: tested under these same conditions
Protocol: The ability of the compounds of Formula I to suppress the activity of HMGR, the rate limiting enzyme of cholesterol biosynthesis, was tested as follows. Chinese Hamster Ovary (CHO) cells were divided twice weekly and were maintained in McCoy's 5A medium supplemented with 1% Cab-O-Sil delipidated Fetal Bovine Serum (FBS) (obtained from Gibco Laboratories, Chagrin Falls, Ohio). Cells were harvested during the logarithmic phase of growth and cell cultures were prepared by adding 0.5×10^6 cells to wash well in a 24 well cluster dish (obtained from Costar, Data Packaging Corp., Cambridge, Mass.) employing 1 mL of the above medium per each well. […] Control cells were treated in an identical fashion to those which received test compound, except they were incubated with the BSA and ethanol suspension only.
Specifically, the medium in each well was aspirated and the cells rinsed with a 50 mM solution of phosphate buffered saline (PBS). One mL of 30 μg/mL of digitonin in CSK buffer (prepared using 10 mM Pipes [piperazine-N,N'-bis(2-ethansulfonic)acid'], 100 mM KCl, 2.5 mM MgCl2, 300 mM sucrose, 1 mM EGTA, pH 6.8) was added to each well and incubated for 10 min at 22° to permeabilize the cells. The buffer was carefully aspirated and the wells were rinsed twice each time with 1 mL of PBS. HMGR activity was measured directly by adding 75 μL of PIB buffer (50 mM potassium phosphate, 1 mM Na2 EDTA, 10 mM dithiothreitol, pH 7.4) to each well and incubating the cells for 30 minutes at 37° as described above. […] HMG-Coenzyme A (15 DPM/pmol), pH 7.4. The assay mixture was incubated for 30 min at 37° and terminated by the addition of 70 μL of [^3 H]-mevalonic acid (35,000 DPM/assay), 0.15 mg/mL in 3 N HCl. The reaction was left to lactonize for an additional 30 min at 37° or overnight at room temperature.
Reaction products were separated by thin layer chromatography on silica gel G (obtained from Analtech, Newark, Del.) developed in an unsaturated environment with acetone:benzene (3:2, v:v). The band corresponding to mevalonolactone was identified by exposure to iodine vapor and was scraped into counting vials. The extent of conversion of starting substrate, HMG-CoA, to mevalonic acid was determined by liquid scintillation counting in Biofluor (obtained from New England Nuclear, Boston, Mass). Corrections for recovery and blank values were made for each sample. Protein determinations were made by the Bio-rad (Bio-Rad, Richmond, Cal.) dye binding assay according to the manufacturer's instruction using bovine serum albumin as standard. Cellular protein was solubilized from culture dishes by the addition of 20 μL of 16 N KOH and assayed directly for protein amount. Suppression values are expressed as the amount of compound required to suppress HMGR activity by 50% relative to that of the controls.

[3] = test system: cholesterol synthesis in CHO cells; assay: De novo cholesterol synthesis: incorporation of radiolabeled acetate into cholesterol in CHO cells; type: cell-based, Chinese Hamster; conditions: for Cholesterol Synthesis (DPMs): 17 hr + 2 hr with [14C]-acetic acid, Control 38855
Protocol: The ability of the compounds of Formula I to decrease de novo cholesterol synthesis was tested by measuring the incorporation of radiolabeled acetate into cholesterol synthesized in CHO cells. To conduct this experiment, CHO cells were plated at 0.3×10^6 cells per 15×60 mm tissue culture dish in 5 mL of McCoy's modified medium (Gibco Laboratories) containing 1% Cab-O-Sil delipidated FBS and incubated for 48 hours at 37° in a 5% CO2, 95% air environment. Test compounds in a 2.5% suspension of BSA (fatty acid free) in ethanol were then added to the cultures such that the final ethanol and BSA concentrations were 0.5% and […], respectively. Control cultures received ethanol and BSA alone. The cultures containing test compounds were then incubated at 37° in a 5% Co, 95% air environment for 17 hr before the addition of [1,2-^14 C]-acetic acid (57 μCi/mmol); obtained from New England Nuclear, Boston, Mass.) at a concentration of 10 μCi/mL for 2 additional hr.
The cells were harvested by washing the cells twice with 5 mL of cold PBS and scraping the cells into 1 mL PBS. The cell-containing solution was then transferred to 15 mL extraction tubes and treated with 1 mL of 90% methanol (containing 15% KOH, 100 μg/mL butylated hydroxytoluene). All samples were saponified for 1 hr at 80° and the non-saponifiable lipids then extracted with petroleum ether. The petroleum ether fractions were dried under nitrogen, resuspended in ethanol, counted and analyzed by reverse phase HPLC at 45° using an Ultrashpere Octyl column (from Altex Scientific Inc., Berkeley, Calif.) with a mobile phase of acetonitrile:methanol:water (44:44:12). The amount of cholesterol synthesis is measured by the amount of radiolabeled acetate incorporated into the cholesterol peak. The percent of cholesterol synthesis in the treated culture is calculated based upon the control culture.

[4] = Cricetulus griseus, 19 h, 10 μM, percent of control culture (100)

Structure (SMILES)	pIC50 [1]	pIC50 [2]	further results
CC(C)CCC[C@@H](C)[C@H]1CC[C@@]2(C(F)F)C3=CC[C@H]4C(C)(C)[C@@H](O)CC[C@]4(C)[C@H]3CC[C@]12C [Compound 9b, 32,32-difluoro-lanost-7-en-3β-ol]	4.43	5.85	Cholesterol Synthesis (DPMs) ([3]; 10 μM): 10125 DPMs; activity at 10 µM [3, 4]: 26%
CC(C)CCC[C@@H](C)[C@H]1CC[C@@]2(C(F)F)C3=C(CC[C@]12C)[C@@]1(C)CC[C@H](O)C(C)(C)[C@@H]1CC3 [Compound 9a, 32,32-difluoro-lanost-8-en-3β-ol]	4.80	5.89	Cholesterol Synthesis (DPMs) ([3]; 10 μM): 3615 DPMs; activity at 10 µM [3, 4]: 9%
CC(C)CCC[C@@H](C)[C@H]1C[C@H](F)[C@@]2(C)C3=CC[C@H]4C(C)(C)[C@@H](O)CC[C@]4(C)[C@H]3CC[C@]12C [Compound 26b, 15α-fluoro-lanost-7-en-3β-ol]	< 4.00	6.00	Cholesterol Synthesis (DPMs) ([3]; 10 μM): 12279 DPMs; activity at 10 µM [3, 4]: 32%
CC(C)CCC[C@@H](C)[C@H]1C[C@H](O)[C@@]2(O)C3=C(CC[C@]12C)[C@@]1(C)CC[C@H](O)C[C@@H]1CC3 [Compound 35a, 5α-cholest-8-en-3β,14α,15α-triol]	< 4.00	6.40	–
CC(C)CCC[C@@H](C)[C@H]1CC[C@@]2(C=NO)C3=CC[C@H]4C(C)(C)[C@@H](O)CC[C@]4(C)[C@H]3CC[C@]12C [Compound 15b, lanost-7-en-32-aldoxime-3β-ol]	5.52	5.85	Cholesterol Synthesis (DPMs) ([3]; 0.5 μM): 1534 DPMs; activity at 0.5 µM ([3]; Cricetulus griseus, 19 h, 0.5 μM, percent of control culture (100)): 4%
CC(C)CCC[C@@H](C)[C@H]1C[C@H](F)[C@@]2(C)C3=CC[C@H]4C[C@@H](O)CC[C@]4(C)[C@H]3CC[C@]12C [Compound 27b, 15α-fluoro-14α-methyl-5α-cholest-7-en-3β-ol]	< 4.00	6.30	–
CC(C)CCC[C@@H](C)[C@H]1CC[C@@]2(C)C3=C(CC[C@]12C)[C@@]1(C)CC[C@H](O)C(C)(C)[C@@H]1CC3 [lanost-8-en-3β-ol, reference compound]	–	–	effect on lanosta-8,24-dien-3β-ol 14α-methyl demethylase activity [1]: clearly served as substrates; effect on measured HMGR activity [2]: without effect
C=CC(O)[C@@]12CC[C@H]([C@H](C)CCCC(C)C)[C@@]1(C)CCC1=C2CC[C@H]2C(C)(C)[C@@H](O)CC[C@]12C (single isomer, unassigned) [Compound 11a, 4,4-dimethyl-14α-(1'-hydroxy-2'-propenyl)-5α-cholest-8-en-3β-ol]	–	7.22	Cholesterol Synthesis (DPMs) ([3]; 1 μM): 360 DPMs
CC(C)=CCC[C@@H](C)[C@H]1CC[C@@]2(C)C3=C(CC[C@]12C)[C@@]1(C)CC[C@H](O)C(C)(C)[C@@H]1CC3 [Compound 1, lanosta-8,24-dien-3β-ol, reference compound]	–	–	effect on lanosta-8,24-dien-3β-ol 14α-methyl demethylase activity [1]: clearly served as substrates; effect on measured HMGR activity [2]: without effect
CC(C)CCC[C@@H](C)[C@H]1CC[C@H]2[C@@H]3CC=C4C[C@@H](O)CC[C@]4(C)[C@H]3CC[C@]12C [cholesterol]	–	–	effect on lanosta-8,24-dien-3β-ol 14α-methyl demethylase activity [1]: without effect; effect on measured HMGR activity [2]: without effect
CC(C)CCC[C@@H](C)[C@H]1CC[C@@]2(C=NO)C3=C(CC[C@]12C)[C@@]1(C)CC[C@H](O)C(C)(C)[C@@H]1CC3 [Compound 15a, lanost-8-en-32-aldoxime-3β-ol]	5.96	7.40	–
C=CC(O)[C@@]12CC[C@H]([C@H](C)CCCC(C)C)[C@@]1(C)CCC1=C2CC[C@H]2C(C)(C)[C@@H](O)CC[C@]12C (single isomer, unassigned) [Compound 12a, 4,4-dimethyl-14α-(1'-hydroxy-2'-propenyl)-5α-cholest-8-en-3β-ol]	5.49	6.89	Cholesterol Synthesis (DPMs) ([3]; 1 μM): 636 DPMs; activity at 1 µM ([3]; Cricetulus griseus, 19 h, 1 μM, percent of control culture (100)): 2%
CC(C)CCC[C@@H](C)[C@H]1CC[C@@]2(C#N)C3=C(CC[C@]12C)[C@@]1(C)CC[C@H](O)C(C)(C)[C@@H]1CC3 [Compound 17a, 14α-cyano-4,4-dimethyl-5α-cholest-8-en-3β-ol]	4.96	5.85	–
